Experimental findings from patent EP0375183A1, “Antiviral dimers and trimers” (SCHERING CORPORATION, priority 1988, dated 1990) are described below.

In this assay the test system is strain HIV-III of the Human Immunodeficiency virus (HIV). In words: Protection of HIV-infected human lymphocyte cell lines from virus destruction (syncytia formation, cell rounding/cytopathology), microtiter test. The conditions noted are these: Human immunodeficiency virus 1, Lymphocyte, continuous cell lines derived from human lymphocytes infected with HIV, incubated 7 to 14 days, microscopic inspection, tests (a) and (b), read-out: Protection of Cells. Format: cell-based. The procedure:
Continuous cell lines derived from human lymphocytes are grown in a microtiter test system. The cells are infected with strain […] of the Human Immunodeficiency virus (HIV), a standard strain isolated from a patient with Acquired Immune Deficiency Syndrome (AIDS). The treated cells are incubated for 7 to 14 days, and the treated cells are inspected by microscope to determine (a) prevention of synctia (cell to cell fusion) formation induced by HIV, or (b) prevention of cell rounding and prevention of HIV caused cytopathology. Such inspections indicate the ability of the compound to prevent cell killing by the virus. Additionally, biochemical determination of the cell media is made to ascertain the ability of the compound to prevent formation of viral products (reverse transcriptase, p24 antigen, or other products), and prevention of formation of more HIV itself.
The control refers to the treatment without a compound of the present invention.

Regarding `Cc1cn([C@H]2C[C@H](N=[N+]=[N-])[C@@H](COP(=O)(O)OCC3CCC(n4cnc5c(N)ncnc54)C3)O2)c(=O)[nH]c1=O` (some centres unmarked) [Compound of Example 1, 5′-O-[[[3-(6-Amino-9H-purin-9-yl)cyclopentyl]methoxy]hydroxyphosphinyl]-3′-azido-3′-deoxy-thymidine], the inhibition at 32 µg/mL (Concentration 32 µg/ml) is 100%. Further, the inhibition at 100 µg/mL (Concentration 100 µg/ml) stood at 100%.
